{"source": "patent US20050112573A1", "about": "“Method of detecting toxic substance” (priority 2001, published 2005)", "system": "yeast genes (level of expressed mRNA)", "assay": "DNA chip analysis of expressed mRNA of yeast genes after 2 h culture with a toxic chemical substance", "assay_type": "cell-based, Saccharomyces cerevisiae S288C", "conditions": "for The level of expressed mRNA in the presence of chemical substance/ (ratio to absence of chemical substance): stress protein genes, DNA chip", "method": "Yeast (Saccharomyces cerevtisiae S288C (α SUC2mal mel gap2 CUP1)) were cultured at 25° C. on YPD medium (yeast extract 1%, polypepton 2%, glucose 2%). One of toxic chemical substances was added to the cell at logarithmic growth phase, and the cell was further cultured for two hours. Cell was cultured without any chemical substance in the same condition, and was used as control. Concentrations of the chemical substances were defined to inhibit the growth of the yeast but not lead to death.\nAfter the completion of cultivation, the culture was centrifuged to collect the cells. To the cells, sodium acetate buffer (50 mM sodium acetate, 10 mM EDTA, 1% SDS) was added, and the mixture was shaken at 65° C. for five minutes, followed by returning to room temperature, and obtaining the supernatant, which procedure was repeated two times. To the supernatant, ½ amount of a solution of phenol/chloroform was added, and the mixture was centrifuged to give a supernatant, which was added with an equal amount of chloroform, and the mixture was centrifuged to give a supernatant. To the supernatant, an equal amount of isopropanol containing 0.3 M sodium acetate was added, and the mixture was allowed to stand at room temperature for 30 minutes, after which the mixture was centrifuged to give a sediment of the whole RNAs. Seventy % ethanol was added to the sediment, and the mixture was again centrifuged to give a sediment, which was then dried and dissolved in water. mRNA was isolated from the whole RNAs as followings. In view of the fact that a poly A chain is attached to the 3′ terminus of mRNA, a polynucleotide having a poly T structure which was immobilized on the surface of latex beads was used to trap the mRNA, and then the mRNA was washed and eluted with spine column (Oligotex-dT30<Super>mRNA Purification Kit, Takara). Reverse transcription of the mRNA was conducted with a reverse transcriptase (Super Script II Reverse Transcriptase; catalogue No. 18064-014, GibcoBRL) using fluorescence-labeled nucleotides to give cDNAs that were introduced with Cy3-dUTP or Cy5-dUTP during the reverse transcription.\nThe labeled cDNAs were dissolved in TE buffer (10 mM Tris-HCl/1 mM EDTA, pH8.0), and the solution was dropped on the DNA chip containing the whole genes of yeast (DNA Chip Research Inc. Japan) so that the cDNAs were hybridized on the DNA chip at 65° C. for over 12 hours. The fluoresces intensity of the DNA chip was read with a scanner, and the ratio relative to the fluorescence intensity resulting from the absence of chemical substance was estimated as the following, which is shown in Tables 1 to 9: [formula]\nIn the Tables, “Intensity” indicated in the rightmost column is a value of the level of expressed mRNA of each gene in control cells as divided by the average level of the expressions of the whole genes.", "data": [{"smiles": "CCCCCCCCCCCCOS(=O)(=O)[O-].[Na+]", "note": "[(18), sodium lauryl sulfate]", "values": [{"measurement": "The level of expressed mRNA in the presence of chemical substance/absence: YOR267C", "setting": "gene YOR267C", "result": 1.0}, {"measurement": "The level of expressed mRNA in the presence of chemical substance/absence: YOR325W", "setting": "gene YOR325W", "result": 1.0}, {"measurement": "level of expressed mRNA in the presence of chemical substance/in its absence", "setting": "gene YOR336W", "result": 1.0}, {"measurement": "level of expressed mRNA in the presence of chemical substance/in its absence", "setting": "gene YOR344C", "result": 1.3}, {"measurement": "level of expressed mRNA in the presence of chemical substance/in its absence", "setting": "gene YOR347C", "result": 1.3}, {"measurement": "The level of expressed mRNA in the presence of chemical substance/absence: YPL005W", "setting": "gene YPL005W", "result": 1.1}, {"measurement": "level of expressed mRNA in the presence of chemical substance/in its absence", "setting": "gene YPL017C", "result": 0.8}, {"measurement": "The level of expressed mRNA in the presence of chemical substance / the level in the absence of chemical substance, yeast gene YPL107W", "setting": "gene YPL107W, DNA chip fluorescence ratio to control without chemical, 2 hours culture with chemical, growth-inhibiting non-lethal concentration", "result": 1.1}, {"measurement": "The level of expressed mRNA in the presence of chemical substance / the level in the absence of chemical substance, yeast gene YPL138C", "setting": "gene YPL138C, DNA chip fluorescence ratio to control without chemical, 2 hours culture with chemical, growth-inhibiting non-lethal concentration", "result": 1.1}, {"measurement": "The level of expressed mRNA in the presence of chemical substance/absence: YPL150W", "setting": "gene YPL150W", "result": 1.1}, {"measurement": "The level of expressed mRNA in the presence of chemical substance/absence: YPL151C", "setting": "gene YPL151C", "result": 1.0}, {"measurement": "The level of expressed mRNA in the presence of chemical substance/absence: YPL152W", "setting": "gene YPL152W", "result": 1.9}, {"measurement": "The level of expressed mRNA in the presence of chemical substance/absence: YPL168W", "setting": "gene YPL168W", "result": 1.2}, {"measurement": "The level of expressed mRNA in the presence of chemical substance/absence: YPL180W", "setting": "gene YPL180W", "result": 0.9}, {"measurement": "The level of expressed mRNA in the presence of chemical substance/absence: YPL188W", "setting": "gene YPL188W", "result": 0.9}, {"measurement": "The level of expressed mRNA in the presence of chemical substance/absence: YPL221W", "setting": "gene YPL221W", "result": 1.2}, {"measurement": "The level of expressed mRNA in the presence of chemical substance/absence: YPL225W", "setting": "gene YPL225W", "result": 1.7}, {"measurement": "The level of expressed mRNA in the presence of chemical substance/absence: YPL249C", "setting": "gene YPL249C", "result": 1.2}, {"measurement": "The level of expressed mRNA in the presence of chemical substance/absence: YPL260W", "setting": "gene YPL260W", "result": 1.3}, {"measurement": "level of expressed mRNA in the presence of chemical substance/in its absence", "setting": "gene YPL265W", "result": 0.4}, {"measurement": "level of expressed mRNA in the presence of chemical substance/in its absence", "setting": "gene YPR006C", "result": 2.1}, {"measurement": "level of expressed mRNA in the presence of chemical substance/in its absence", "setting": "gene YPR026W", "result": 1.3}, {"measurement": "The level of expressed mRNA in the presence of chemical substance/absence: YPR049C", "setting": "gene YPR049C", "result": 1.1}, {"measurement": "The level of expressed mRNA in the presence of chemical substance/absence: YPR061C", "setting": "gene YPR061C", "result": 0.9}, {"measurement": "The level of expressed mRNA in the presence of chemical substance/absence: YPR093C", "setting": "gene YPR093C", "result": 1.1}, {"measurement": "The level of expressed mRNA in the presence of chemical substance/absence: YPR146C", "setting": "gene YPR146C", "result": 1.1}, {"measurement": "The level of expressed mRNA in the presence of chemical substance/absence: YPR148C", "setting": "gene YPR148C", "result": 2.0}, {"measurement": "The level of expressed mRNA in the presence of chemical substance/absence: YPR150W", "setting": "gene YPR150W", "result": 1.0}, {"measurement": "The level of expressed mRNA in the presence of chemical substance/absence: YPR158W", "setting": "gene YPR158W", "result": 0.7}, {"measurement": "The level of expressed mRNA in the presence of chemical substance/absence: YPR169W", "setting": "gene YPR169W", "result": 1.1}, {"measurement": "The level of expressed mRNA in the presence of chemical substance/absence: YPR172W", "setting": "gene YPR172W", "result": 1.4}, {"measurement": "The level of expressed mRNA in the presence of chemical substance/absence: YPR174C", "setting": "gene YPR174C", "result": 0.9}, {"measurement": "The level of expressed mRNA in the presence of chemical substance/The level of expressed mRNA in the absence of chemical substance", "setting": "yeast gene YAR010C", "result": 1.0}, {"measurement": "The level of expressed mRNA in the presence of chemical substance/The level of expressed mRNA in the absence of chemical substance", "setting": "yeast gene YBL005W-A", "result": 1.0}, {"measurement": "The level of expressed mRNA in the presence of chemical substance/ (ratio to absence), gene YBL038W", "setting": "yeast gene YBL038W, mitochondria-located protein genes, 2 h culture with chemical", "result": 1.9}, {"measurement": "The level of expressed mRNA in the presence of chemical substance/The level of expressed mRNA in the absence of chemical substance", "setting": "yeast gene YBL041W", "result": 2.0}, {"measurement": "The level of expressed mRNA in the presence of chemical substance/The level of expressed mRNA in the absence of chemical substance", "setting": "yeast gene YBL043W", "result": 1.8}, {"measurement": "The level of expressed mRNA in the presence of chemical substance/The level of expressed mRNA in the absence of chemical substance", "setting": "yeast gene YBL078C", "result": 2.8}, {"measurement": "The level of expressed mRNA in the presence of chemical substance/ (ratio to absence of chemical substance)", "setting": "yeast gene YBL093C", "result": 1.3}, {"measurement": "The level of expressed mRNA in the presence of chemical substance/ (in its absence), gene YBR036C", "setting": "yeast gene YBR036C, ratio of DNA chip fluorescence intensity to that without chemical substance", "result": 1.8}, {"measurement": "The level of expressed mRNA in the presence of chemical substance/ (ratio to absence of chemical substance)", "setting": "yeast gene YBR044C", "result": 1.3}, {"measurement": "The level of expressed mRNA in the presence of chemical substance/ (ratio to absence), gene YBR122C", "setting": "yeast gene YBR122C, mitochondria-located protein genes, 2 h culture with chemical", "result": 1.5}, {"measurement": "The level of expressed mRNA in the presence of chemical substance/The level of expressed mRNA in the absence of chemical substance", "setting": "yeast gene YBR214W", "result": 1.2}, {"measurement": "The level of expressed mRNA in the presence of chemical substance/ (ratio to absence), gene YBR251W", "setting": "yeast gene YBR251W, mitochondria-located protein genes, 2 h culture with chemical", "result": 1.4}, {"measurement": "The level of expressed mRNA in the presence of chemical substance/ (in its absence), gene YBR298C", "setting": "yeast gene YBR298C, ratio of DNA chip fluorescence intensity to that without chemical substance", "result": 0.8}, {"measurement": "The level of expressed mRNA in the presence of chemical substance/The level of expressed mRNA in the absence of chemical substance", "setting": "yeast gene YCL020W", "result": 1.3}, {"measurement": "The level of expressed mRNA in the presence of chemical substance/The level of expressed mRNA in the absence of chemical substance", "setting": "yeast gene YCL027W", "result": 0.8}, {"measurement": "The level of expressed mRNA in the presence of chemical substance/The level of expressed mRNA in the absence of chemical substance", "setting": "yeast gene YCR004C", "result": 3.5}, {"measurement": "The level of expressed mRNA in the presence of chemical substance/ (ratio to absence), gene YCR046C", "setting": "yeast gene YCR046C, mitochondria-located protein genes, 2 h culture with chemical", "result": 1.0}, {"measurement": "The level of expressed mRNA in the presence of chemical substance/The level of expressed mRNA in the absence of chemical substance", "setting": "yeast gene YCR071C", "result": 1.3}, {"measurement": "The level of expressed mRNA in the presence of chemical substance/ (ratio to absence), gene YCR083W", "setting": "yeast gene YCR083W, mitochondria-located protein genes, 2 h culture with chemical", "result": 1.3}, {"measurement": "The level of expressed mRNA in the presence of chemical substance/ (ratio to absence of chemical substance)", "setting": "yeast gene YCR083W", "result": 1.3}, {"measurement": "The level of expressed mRNA in the presence of chemical substance/The level of expressed mRNA in the absence of chemical substance", "setting": "yeast gene YCR088W", "result": 0.9}, {"measurement": "The level of expressed mRNA in the presence of chemical substance/The level of expressed mRNA in the absence of chemical substance", "setting": "yeast gene YDL008W", "result": 1.6}, {"measurement": "The level of expressed mRNA in the presence of chemical substance/ in its absence, gene YDL067C", "setting": "yeast gene YDL067C, energy system protein genes, 2 h culture with the chemical, ratio to control without chemical", "result": 1.7}, {"measurement": "The level of expressed mRNA in the presence of chemical substance/ (ratio to absence), gene YDL067C", "setting": "yeast gene YDL067C, mitochondria-located protein genes, 2 h culture with chemical", "result": 1.7}, {"measurement": "The level of expressed mRNA in the presence of chemical substance/ in its absence, gene YDL078C", "setting": "yeast gene YDL078C, energy system protein genes, 2 h culture with the chemical, ratio to control without chemical", "result": 2.0}]}]}
